Measured values reported in US20250122253A1, “REGULATING MICROTUBULE DYNAMICS AS A THERAPEUTIC TARGET FOR NERVE REPAIR” (City University of Hong Kong, priority 2023, published 2025).

Legend:
[1] = test system: gastrocnemius and interosseous muscles; assay: Electromyography (EMG) recording of CMAP amplitude; type: in vivo, mice
Procedure: Electromyography (EMG) recording was performed on anesthetized mice as described. Briefly, mice were anesthetized with ketamine (100 mg/kg)/xylazine (10 mg/kg), and placed on a heat pad set to 37° C. to avoid hypothermia during the course of EMG recordings. Baseline EMG were recorded before sciatic nerve crush injury using custom-made monopolar Teflon-coated electrodes. Following sciatic nerve crush injury, EMG were recorded on a weekly basis for one month (days 7, 14, 21 and 28). For EMG recordings of proximal gastrocnemius muscle, recording electrode was inserted into the gastrocnemius muscle, and Achilles tendon electrode as a reference. For EMG recordings of distal interosseous muscle, recording electrode and reference electrode was inserted into first and fourth muscle of the same paw, respectively. Sciatic nerve was then stimulated proximally or distally, and both proximal and distal stimulations were used for CMAP of interosseous muscle. Only proximal stimulation was used for CMAP of the gastrocnemius muscle. The mean CMAP amplitude was recorded (Blackrock microsystem, USA) and calculated (Spike 2, UK).
To examine the therapeutic potential of metaxalone, adult mice received daily intraperitoneal injection of metaxalone at 10 mg/kg immediately after injury for 21 consecutive days (i.e., metaxalone treatment) or delaying daily intraperitoneal injection of metaxalone at 10 mg/kg to 24 hours post-injury for 20 consecutive days (i.e., delayed metaxalone treatment), and all metaxalone treatments ended on day 21 post-injury. The mice were then subjected to sensory and motor function recovery tests and weekly EMG recordings for 28 days post-injury.

gait movement = assay: Sciatic functional index (SFI) walking track analysis; type: in vivo, mice; conditions: 15 days post-injury
Procedure: (§1) Adult male Fmn2^−/− mice (8-12 weeks old) and their age-matched WT littermates, or adult male C57BL/6 mice (for whole-body X-ray, AAV2/9-Fmn2-shRNA and metaxalone experiments) were trained and habituated one week before the sciatic nerve crush injury. After three independent training sessions (30 minutes per session with two days break), baseline values were taken, and sciatic nerve crush injury were performed one day after the baseline recordings. Function recovery was monitored for 30 days. On day 3 after the sciatic nerve crush, we first perform pinprick assay and followed by motor function assays every other day in a sequential manner (toe spreading, grip strength, and sciatic functional index) with 30 mins apart from each test. Animal behavioural tests were done blinded to the surgery and genotypes.
The walking track analysis was performed by training the mice to walk down a narrow corridor covered with white paper strip (10×60 cm) and the hindlimbs of the mice were pained with red water colour. […] The SFI values were calculated from footprints as follows: • […](experimental print length−naïve print length)/naïve print length+109.5×(experimental toe spread−naïve toe spread)/naïve toe spread+13.3×(experimental intermediary toe spread−naïve intermediary toe spread)/naïve intermediary toe spread−8.8. […]

[2] = test system: SCG10-positive regenerating axons of sciatic nerve; assay: Quantification of in vivo axon regeneration by SCG10 immunostaining (regeneration index); parameters: species or system mice; conditions: 3 days post-injury
Procedure: Mice were perfused transcardially with 4% PFA, and L4/5 DRGs and sciatic nerves were harvested, post-fixed, cryoprotected and frozen in OCT compound (Tissue-Tek). For regenerating axon quantification, 12-μm thick longitudinal serial sections of sciatic nerve were blocked with 0.5% BSA/0.1% Triton X-100 (Sigma-Aldrich), and incubated with anti-SCG10 (a marker for regenerating sensory axons; 1:5,000; Novus Biologicals) primary antibodies. The sections were then incubated with secondary antibody conjugated with Alexa Fluor 555 (1:300; Molecular Probes). A series of z-stack images were taken at 20× magnifications using Nikon AXR confocal microscope equipped with a motorized stage and a resonant scanner, stitched, and maximally projected using NIS-Elements software.
To quantify regenerating axons, the SCG10 fluorescence intensity was measured at different distal distances away from the crush site using a line scan macro in ImageJ (NIH). A fluorescence intensity profile of SCG10 immunoreactivity was plotted by averaging the SCG10 intensity from 100 neighbouring pixels and normalized to that measured in the crushed site with maximal SCG10 immunoreactivity. For each mouse, at least 3 non-overlapping sections (at least 36 μm apart) were used and averaged from 12-15 sections per genotype or treatment group (n=4-5 per genotype or treatment group).

axotomized DRG neurons = assay: Neurite outgrowth assay in dissociated DRG cultures; type: cell-based, mice; conditions: increasing dose; neurite outgrowth increased almost linearly
Procedure: Primary cultures of dissociated DRG neurons were prepared from adult male C57BL/6 or Fmn2^−/− mice (8-12 weeks old) and their age-matched WT littermates as described. Briefly, DRGs were dissected out from the mice and mildly digested in collagenase/dispase II (Roche Diagnostics) solution, trypsinized and mechanically dissociated using flame polished Pasteur pipettes with three different diameters. DRG neurons were incubated in full NB medium.
For ex vivo DRG explant culture, non-overlapping quadrant images were taken from each DRG explant, and total neurite length was measured using automated WIS-NeuroMath software (Weizmann Institute of Science). Data were obtained from at least 3 separate experiments with n=8 explants per dose. […] Total neurite length and average longest neurite length were quantified using automated WIS-NeuroMath software (Weizmann Institute of Science). Data was obtained from 3 independent experiments repeated in duplicates. βIII-tubulin-positive DRG neurons with intact neurites adjacent to the neuronal cell bodies were counted as healthy neurons for neurite outgrowth assay.

hindlimb muscle strength = assay: Hindlimb grip strength measurement after sciatic nerve crush; type: in vivo, mice; conditions: from day 11 to 23
Procedure: as §1
Muscle strength from hindlimbs were measured using a grip strength meter (BIO-GS3, Bioseb). To measure the grip strength of both hindlimbs, their hindlimbs were positioned to grip a metal T-bar connected to the grip strength meter, while their forelimbs were rested on a plastic bar. The mice were then gently pulled off from the T-bar. The values at which the mouse left the T-bar reflected the grip strength in grams. The average grip strength was taken from at least 5 consecutive grip strength measurements per animal. […]

## Cc1cc(C)cc(OCC2CNC(=O)O2)c1 (stereo not drawn) [metaxalone]
[1]; delayed treatment, week 1 to 3 post-injury
  muscle activities in proximal gastrocnemius vs vehicle controls, delayed treatment: significant improvement
[1]; delayed treatment, week 2-3 post-injury
  muscle activity in interosseous muscles vs vehicle controls, delayed treatment: significant increase
[1]; immediate treatment, first 3 weeks post-injury
  muscle activity in most distal interosseous muscles vs vehicle controls: reached significance levels
[1]; immediate treatment, week 1 to 3 post-injury
  muscle activities in proximal gastrocnemius vs vehicle controls: significant improvement
Gait movement; treated immediately
  increase of average SFI compared with SFI values at day 3 post-injury: 73.0%
Gait movement; treatment delayed by 24 hours
  increase of average SFI compared with SFI values at day 3 post-injury, delayed treatment: 71.4%
[2]; treatment delayed by 24 hours
  regeneration index at the region over 4.5 mm, delayed treatment: 0.40
[2]; treatment immediately after injury
  regeneration index at the region over 4.5 mm: 0.34
[2]; vs vehicle controls
  number of SCG10-positive regenerating axons at 4.5 mm distal to the crush injury site: significant increase
Axotomized DRG neurons
  concentration at which neurite outgrowth reaches a plateau: 20 µM
Hindlimb muscle strength; immediate treatment 10 mg/kg
  hindlimb grip strength recovery vs controls: significantly higher
Hindlimb muscle strength; treatment delayed 24 hours, 10 mg/kg
  hindlimb grip strength recovery vs controls, delayed treatment: significantly higher
